pIC50: −log10 of the molar value. Bridge positions count the residues as written; N and C are the ends. Square brackets hold non-standard residues; d marks the D form. Peptide text beside a SMILES is read from it. * marks the point of attachment. ξ: configuration not given here. Phe(4-COOH) = N[C@@H](Cc1ccc(C(=O)O)cc1)C(=O)O; Bip = N[C@@H](Cc1ccc(-c2ccccc2)cc1)C(=O)O; Phe(3-Me) = Cc1cccc(C[C@H](N)C(=O)O)c1; Cha = N[C@@H](CC1CCCCC1)C(=O)O; Cit = NC(=O)NCCC[C@H](N)C(=O)O; NMeN = CN[C@@H](CC(N)=O)C(=O)O; Thr(3ξ) = CC(O)[C@H](N)C(=O)O; hSer = N[C@@H](CCO)C(=O)O; Carboxymethyl = O=C(O)C*; NMeA = CN[C@@H](C)C(=O)O; Orn = NCCC[C@H](N)C(=O)O; Aun = NCCCCCCCCCCC(=O)O; Dab = NCC[C@H](N)C(=O)O; AEEA = NCCOCCOCC(=O)O
Target: T1, PD-1/PD-L1 interaction (PE-labeled human PD-L1-Ig binding to Jurkat cell line over-expressing human PD-1) (Homo sapiens, UniProt Q15116)
T1 construct: expressed in transfected cells; host or cells: Jurkat
Test: Jurkat-PD-1 Cell Binding High-Content Screening Assay (CBA)
Type: cell-based
Conditions: Jurkat cell line over-expressing human PD-1; PE-labeled PD-L1-Ig 20 nM final; read-out: Jurkat hPD1-PDL1 IC50
Method in brief: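 First, compound is added to PD-1-expressing Jurkat cells in serum-containing DMEM and left 2 h at 37° C. Next, PE-conjugated PD-L1-Ig is introduced at 20 nM final concentration for 1 hour. Finally, cells are fixed in 4% paraformaldehyde with Hoechst 33342, washed and imaged.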

T1 sequence (Q15116 25-288): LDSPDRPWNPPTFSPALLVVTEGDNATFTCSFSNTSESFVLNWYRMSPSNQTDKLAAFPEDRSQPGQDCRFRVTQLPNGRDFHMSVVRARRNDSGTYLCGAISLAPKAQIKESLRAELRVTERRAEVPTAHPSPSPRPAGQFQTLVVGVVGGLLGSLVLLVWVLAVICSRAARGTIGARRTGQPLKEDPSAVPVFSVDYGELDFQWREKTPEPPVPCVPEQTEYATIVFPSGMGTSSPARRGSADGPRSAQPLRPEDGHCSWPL

Cc1cccc(C[C@@H]2NC(=O)[C@H](CC(=O)O)NC(=O)[C@H](Cc3ccc(OCC(=O)O)cc3)NC(=O)[C@H](CCCNC(=N)N)NC(=O)CSC[C@@H](C(=O)N[C@H](CC(N)=O)C(=O)NCCCCCCCCCCC(=O)O)NC(=O)[C@H](CCCN)NC(=O)[C@H](C(C)C)NC(=O)[C@H](CC3CCCCC3)NC(=O)[C@H](CCN)NC(=O)[C@@H](CC(C)C)NC(=O)[C@H](CCCN)NC(=O)[C@H](CCCNC(N)=O)NC(=O)[C@H](Cc3ccc(-c4ccccc4)cc3)NC(=O)[C@H](C(C)C)NC2=O)c1 [Compound 3311] ({CH2CO}-RY(Carboxymethyl)D[Phe(3-Me)]V[Bip][Cit][Orn][dL][Dab][Cha]V[Orn]C[dN][Aun]-OH; thioether N-14)
pIC50: 8.36

Cc1cccc(C[C@@H]2NC(=O)[C@H](CC(=O)O)NC(=O)[C@H](Cc3ccc(OCC(=O)O)cc3)NC(=O)[C@H](C(C)O)NC(=O)CSC[C@@H](C(=O)N[C@H](CC(N)=O)C(=O)NCCCCCCCCCCC(=O)O)NC(=O)[C@H](CCCN)NC(=O)[C@H](C(C)C)NC(=O)[C@H](CC3CCCCC3)NC(=O)[C@H](CCN)NC(=O)[C@@H](CC(C)C)NC(=O)[C@H](CCCN)NC(=O)[C@H](CCCNC(N)=O)NC(=O)[C@H](Cc3ccc(-c4ccccc4)cc3)NC(=O)[C@H](C(C)C)NC2=O)c1 (stereo partly drawn) [Compound 3312] ({CH2CO}-[Thr(3ξ)]Y(Carboxymethyl)D[Phe(3-Me)]V[Bip][Cit][Orn][dL][Dab][Cha]V[Orn]C[dN][Aun]-OH; thioether N-14)
pIC50: 8.36

Cc1cccc(C[C@@H]2NC(=O)[C@H](CC(=O)O)NC(=O)[C@H](Cc3ccc(OCC(=O)O)cc3)NC(=O)[C@H](CCCNC(=N)N)NC(=O)CSC[C@@H](C(=O)NCCCCCCCCCCC(=O)O)NC(=O)[C@H](CCCN)NC(=O)[C@H](C(C)C)NC(=O)[C@H](CC3CCCCC3)NC(=O)[C@H](CCN)NC(=O)[C@@H](CC(C)C)NC(=O)[C@H](CCCN)NC(=O)[C@H](C(C)C)NC(=O)[C@H](Cc3ccc(-c4ccccc4)cc3)NC(=O)[C@H](C(C)C)NC2=O)c1 [Compound 3316] ({CH2CO}-RY(Carboxymethyl)D[Phe(3-Me)]V[Bip]V[Orn][dL][Dab][Cha]V[Orn]C[Aun]-OH; thioether N-14)
pIC50: 8.21

Cc1cccc(C[C@@H]2NC(=O)[C@H](CC(=O)O)NC(=O)[C@H](Cc3ccc(OCC(=O)O)cc3)NC(=O)[C@H](CCCNC(=N)N)NC(=O)CSC[C@@H](C(=O)N(C)[C@@H](C)C(=O)NCCOCCOCC(=O)NCCCCCCCCCCC(=O)O)NC(=O)[C@H](CCCN)NC(=O)[C@H](C(C)C)NC(=O)[C@H](CC3CCCCC3)NC(=O)[C@H](CCN)NC(=O)[C@@H](CC(C)C)NC(=O)[C@H](CCN)NC(=O)[C@H](C(C)C)NC(=O)[C@H](Cc3ccc(-c4ccccc4)cc3)NC(=O)[C@H](C(C)C)NC2=O)c1 [Compound 3319] ({CH2CO}-RY(Carboxymethyl)D[Phe(3-Me)]V[Bip]V[Dab][dL][Dab][Cha]V[Orn]C[NMeA][AEEA][Aun]-OH; thioether N-14)
pIC50: 7.27

Cc1cccc(C[C@@H]2NC(=O)[C@H](CC(=O)O)NC(=O)[C@H](Cc3ccc(OCC(=O)O)cc3)NC(=O)[C@H](C(C)O)NC(=O)CSC[C@@H](C(=O)N(C)[C@@H](C)C(=O)NCCOCCOCC(=O)NCCCCCCCCCCC(=O)O)NC(=O)[C@H](CCCN)NC(=O)[C@H](C(C)C)NC(=O)[C@H](CC3CCCCC3)NC(=O)[C@H](CCN)NC(=O)[C@@H](CC(C)C)NC(=O)[C@H](CCN)NC(=O)[C@H](C(C)C)NC(=O)[C@H](Cc3ccc(-c4ccccc4)cc3)NC(=O)[C@H](C(C)C)NC2=O)c1 (stereo partly drawn) [Compound 3320] ({CH2CO}-[Thr(3ξ)]Y(Carboxymethyl)D[Phe(3-Me)]V[Bip]V[Dab][dL][Dab][Cha]V[Orn]C[NMeA][AEEA][Aun]-OH; thioether N-14)
pIC50: 7.16

Cc1cccc(C[C@@H]2NC(=O)[C@H](CC(=O)O)NC(=O)[C@H](Cc3ccc(OCC(=O)O)cc3)NC(=O)[C@H](CCCNC(=N)N)NC(=O)CSC[C@@H](C(=O)N(C)[C@@H](CC(N)=O)C(=O)NCCOCCOCC(=O)NCCCCCCCCCCC(=O)O)NC(=O)[C@H](CCCN)NC(=O)[C@H](C(C)C)NC(=O)[C@H](CC3CCCCC3)NC(=O)[C@H](CCN)NC(=O)[C@@H](CC(C)C)NC(=O)[C@H](CCN)NC(=O)[C@H](C(C)C)NC(=O)[C@H](Cc3ccc(-c4ccccc4)cc3)NC(=O)[C@H](C(C)C)NC2=O)c1 [Compound 3321] ({CH2CO}-RY(Carboxymethyl)D[Phe(3-Me)]V[Bip]V[Dab][dL][Dab][Cha]V[Orn]C[NMeN][AEEA][Aun]-OH; thioether N-14)
pIC50: 7.29

Cc1cccc(C[C@@H]2NC(=O)[C@H](CC(=O)O)NC(=O)[C@H](Cc3ccc(OCC(=O)O)cc3)NC(=O)[C@H](C(C)O)NC(=O)CSC[C@@H](C(=O)N(C)[C@@H](CC(N)=O)C(=O)NCCOCCOCC(=O)NCCCCCCCCCCC(=O)O)NC(=O)[C@H](CCCN)NC(=O)[C@H](C(C)C)NC(=O)[C@H](CC3CCCCC3)NC(=O)[C@H](CCN)NC(=O)[C@@H](CC(C)C)NC(=O)[C@H](CCN)NC(=O)[C@H](C(C)C)NC(=O)[C@H](Cc3ccc(-c4ccccc4)cc3)NC(=O)[C@H](C(C)C)NC2=O)c1 (stereo partly drawn) [Compound 3322] ({CH2CO}-[Thr(3ξ)]Y(Carboxymethyl)D[Phe(3-Me)]V[Bip]V[Dab][dL][Dab][Cha]V[Orn]C[NMeN][AEEA][Aun]-OH; thioether N-14)
pIC50: 7.43

Cc1cccc(C[C@@H]2NC(=O)[C@H](CC(=O)O)NC(=O)[C@H](Cc3ccc(C(=O)O)cc3)NC(=O)[C@H](Cc3ccc(OCC(=O)O)cc3)NC(=O)CSC[C@@H](C(=O)NCCOCCOCC(=O)NCCCCCCCCCCC(=O)O)NC(=O)[C@H](CCO)NC(=O)[C@H](C(C)C)NC(=O)[C@H](CC3CCCCC3)NC(=O)[C@H](CCN)NC(=O)[C@@H](CC(C)C)NC(=O)[C@H](CCCN)NC(=O)[C@H](C(C)C)NC(=O)[C@H](Cc3ccc(-c4ccccc4)cc3)NC(=O)[C@H](C(C)C)NC2=O)c1 [Compound 3327] ({CH2CO}-Y(Carboxymethyl)[Phe(4-COOH)]D[Phe(3-Me)]V[Bip]V[Orn][dL][Dab][Cha]V[hSer]C[AEEA][Aun]-OH; thioether N-14)
pIC50: 7.50

CC(=O)NCCCC[C@@H]1NC(=O)[C@H](Cc2ccc(-c3ccccc3)cc2)NC(=O)[C@H](C(C)C)NC(=O)[C@H](Cc2c[nH]c3ccccc23)NC(=O)[C@H](CC(=O)O)NC(=O)[C@H](Cc2ccc(OCC(=O)O)cc2)NC(=O)[C@H](CCCNC(=N)N)NC(=O)CSC[C@@H](C(=O)NCCOCCOCC(=O)NCCCCCCCCCCC(=O)O)NC(=O)[C@H](C(C)O)NC(=O)[C@H](C(C)C)NC(=O)[C@H](CC2CCCCC2)NC(=O)[C@H](CCN)NC(=O)[C@@H](CC(C)C)NC(=O)[C@H](CCCN)NC1=O (stereo partly drawn) [Compound 3335] ({CH2CO}-RY(Carboxymethyl)DWV[Bip]K(Ac)[Orn][dL][Dab][Cha]V[Thr(3ξ)]C[AEEA][Aun]-OH; thioether N-14)
pIC50: 8.09

CC(C)C[C@H]1NC(=O)[C@H](CCCN)NC(=O)[C@H](C(C)C)NC(=O)[C@H](Cc2ccc(-c3ccccc3)cc2)NC(=O)[C@H](CCO)NC(=O)[C@H](Cc2c[nH]c3ccccc23)NC(=O)[C@H](CC(=O)O)NC(=O)[C@H](Cc2ccc(OCC(=O)O)cc2)NC(=O)[C@H](CCCNC(=N)N)NC(=O)CSC[C@@H](C(=O)N[C@@H](CCCN)C(=O)NCCCCCCCCCCC(=O)O)NC(=O)[C@H](C(C)O)NC(=O)[C@H](C(C)C)NC(=O)[C@H](CC2CCCCC2)NC(=O)[C@H](CCN)NC1=O (stereo partly drawn) [Compound 3338] ({CH2CO}-RY(Carboxymethyl)DW[hSer][Bip]V[Orn][dL][Dab][Cha]V[Thr(3ξ)]C[Orn][Aun]-OH; thioether N-14)
pIC50: 7.56

CC(C)C[C@H]1NC(=O)[C@H](CCCN)NC(=O)[C@H](C(C)C)NC(=O)[C@H](Cc2ccc(-c3ccccc3)cc2)NC(=O)[C@H](C(C)C)NC(=O)[C@H](Cc2c[nH]c3ccccc23)NC(=O)[C@H](CC(=O)O)NC(=O)[C@H](Cc2ccc(OCC(=O)O)cc2)NC(=O)[C@H](CCCNC(=N)N)NC(=O)CSC[C@@H](C(=O)N[C@@H](CCCN)C(=O)NCCCCCCCCCCC(=O)O)NC(=O)[C@H](CCO)NC(=O)[C@H](C(C)C)NC(=O)[C@H](CC2CCCCC2)NC(=O)[C@H](CCN)NC1=O [Compound 3339] ({CH2CO}-RY(Carboxymethyl)DWV[Bip]V[Orn][dL][Dab][Cha]V[hSer]C[Orn][Aun]-OH; thioether N-14)
pIC50: 8.06

Cc1cccc(C[C@@H]2NC(=O)[C@H](CC(=O)O)NC(=O)[C@H](Cc3ccc(OCC(=O)O)cc3)NC(=O)[C@H](C(C)O)NC(=O)CSC[C@@H](C(=O)N(C)[C@@H](CC(N)=O)C(=O)NCCCCCCCCCCC(=O)O)NC(=O)[C@H](CCCCN)NC(=O)[C@H](C(C)C)NC(=O)[C@H](CC3CCCCC3)NC(=O)[C@H](CCN)NC(=O)[C@@H](CC(C)C)NC(=O)[C@H](CCCN)NC(=O)[C@H](C(C)C)NC(=O)[C@H](Cc3ccc(-c4ccccc4)cc3)NC(=O)[C@H](C(C)C)NC2=O)c1 (stereo partly drawn) [Compound 3340] ({CH2CO}-[Thr(3ξ)]Y(Carboxymethyl)D[Phe(3-Me)]V[Bip]V[Orn][dL][Dab][Cha]VKC[NMeN][Aun]-OH; thioether N-14)
pIC50: 8.06

CC(=O)NCCCC[C@@H]1NC(=O)[C@H](C(C)C)NC(=O)[C@H](CC2CCCCC2)NC(=O)[C@H](CCN)NC(=O)[C@@H](CC(C)C)NC(=O)[C@H](CCCN)NC(=O)[C@H](C(C)C)NC(=O)[C@H](Cc2ccc(-c3ccccc3)cc2)NC(=O)[C@H](C(C)C)NC(=O)[C@H](Cc2c[nH]c3ccccc23)NC(=O)[C@H](CC(=O)O)NC(=O)[C@H](Cc2ccc(OCC(=O)O)cc2)NC(=O)[C@H](CCCNC(=N)N)NC(=O)CSC[C@@H](C(=O)NCCOCCOCC(=O)NCCCCCCCCCCC(=O)O)NC1=O [Compound 3341] ({CH2CO}-RY(Carboxymethyl)DWV[Bip]V[Orn][dL][Dab][Cha]VK(Ac)C[AEEA][Aun]-OH; thioether N-14)
pIC50: 8.13

Source: patent publication US20260022142A1, “MACROCYCLIC IMMUNOMODULATORS” (Bristol-Myers Squibb Company, priority 2022, published 2026)
